Patent publication US20230241081A1, “Method for Treating Melanoma” (The Regents of the University of Colorado, a body corporate, priority 2020, published 2023)
Residues, ends and D or L forms follow the SMILES beside them. *: point of attachment. Cbz = O=C(OCc1ccccc1)*

Molecular target: T1, PRL-3 (Homo sapiens, UniProt O75365)
T1 construct: endogenous in cells; host or cells: BT-20 cells
Test: PRL-3 degradation in BT-20 cells
Format: cell-based
Settings: proteasomal inhibitor with 100 nM compound A, FIG. 6

T1 sequence (O75365 whole entry): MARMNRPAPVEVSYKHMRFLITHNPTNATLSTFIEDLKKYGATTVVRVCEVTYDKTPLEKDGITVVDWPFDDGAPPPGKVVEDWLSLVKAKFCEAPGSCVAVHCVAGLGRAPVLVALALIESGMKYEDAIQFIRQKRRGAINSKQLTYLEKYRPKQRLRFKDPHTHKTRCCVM

## CC(C)C[C@@H](C=O)NC(=O)[C@H](CC(C)C)NC(=O)[C@H](CC(C)C)NC(=O)OCc1ccccc1 [MG-132] (Cbz-Leu-Leu-Leu-aldehyde)
  effect on compound A-mediated degradation of PRL-3: block compound A-mediated degradation of PRL-3
